# Results reported in patent US11713322B2, “Benzimidazole derivatives as ERBB tyrosine kinase inhibitors for the treatment of cancer” (Capella Therapeutics, Inc., priority 2014, dated 2023).
# Experiments:
# Type in all cases: cell-based
# [1] = test system: human epidermal keratinocytes, neonatal, or HEKn cells; assay: Cell proliferation assay, HEKn (wild-type ERBB1); settings: Keratinocyte, 72 hrs compound treatment
# Protocol: (§1) The biological activity of a test compound was determined using cell proliferation assays. The activity against wild-type ERBB1 was determined using A431 human epidermoid carcinoma cells (ATCC) and human epidermal keratinocytes, neonatal, or HEKn cells (ATCC).
# (§2) A431 cells were grown in DMEM (Invitrogen) supplemented with 10% FBS (Lonza), 1% penicillin-streptomycin, and 2 mM glutamine (Invitrogen). HEKn cells were grown in EPILIFE® (Invitrogen) supplemented with HKGS (Invitrogen). […] Cells were maintained and propagated at 37° C. and 5% CO2 in a humidified cell culture incubator. Aliquots of cells from early passages were preserved for liquid nitrogen storage. Frozen vials of cells were thawed at 37° C. water bath. Cells were spun to remove freezing medium. The newly revived frozen cells were adapted in culture for 10 days before used for compound testing. Cells used in the assay were less than 20 subculture passages or 3 months in culture.
# (§3) The test compounds were dissolved in dimethylsulfoxide (DMSO) and stored at −20° C. before testing. […] The cells were placed in a culture incubator overnight. Next day, test compounds in DMSO were added to the cells and placed back in the culture incubator for 72 hrs. In the meantime, the cell numbers at time zero of the compound treatment (T0) was measured by EnerCount (Codex BioSolutions). At the end of the compound treatment, the cell numbers were again measured by EnerCount as T72 values. The untreated controls (Ctrl) were cell numbers recorded from the 0.1% DMSO treatment. The percent growth inhibition by the test compound was calculated by the formula: (1−(T72−T0)/(Ctrl−T0))×100.
# (§4) The results are summarized in Tables 1 and 2, wherein A represents a value no greater than 500 nM, B represents a value greater than 500 nM but no greater than 1 μM, C represents a value greater than 1 μM but no greater than 5 μM, and D represents a value greater than 5 μM; and wherein A′ represents a ratio of greater than 10, B′ represents a ratio of no greater than 10 but no less than 5, C′ represents a ratio of no greater than 5 but no less than 2, and D′ represents a ratio of no greater than 2.
# [2] = test system: HCC827 human NSCLC adenocarcinoma cells; assay: Cell proliferation assay, HCC827 (mutant ERBB1, exon 19 deletion); settings: for GI50: Homo sapiens, HCC827, 72 hrs compound treatment
# Protocol: as §1, §2, §3, §4
# [3] = test system: H1975 human NSCLC adenocarcinoma cells; assay: Cell proliferation assay, H1975 (drug-resistant mutant ERBB1, T790M/L858R); settings: for GI50: Homo sapiens, NCI-H1975, 72 hrs compound treatment
# Protocol: as §1, §2, §3, §4
# [4] = test system: A431 human epidermoid carcinoma cells; assay: Cell proliferation assay, A431 (wild-type ERBB1); settings: A-431, 72 hrs compound treatment, class symbols
# Protocol: as §1, §2
# as §3, with “(1−(T72−T0)/(Ctrl−T0))×100. […]” for “(1−(T72−T0)/(Ctrl−T0))×100.”
"GI50 ([2]; numeric values, unit inferred)","GI50 ([3]; numeric values, unit inferred)",GI50 ([2]; class symbols),GI50 [4],GI50 ([3]; class symbols),Structure (SMILES),"GI50 ([1]; numeric values, unit inferred)",Selectivity Ratio (Wild-type ERBB1/Mutant ERBB1) HEKn/HCC827 ([2]; ratio of GI50 HEKn/HCC827),Selectivity Ratio (Wild-type ERBB1/Mutant ERBB1) HEKn/H1975 ([3]; ratio of GI50 HEKn/H1975),GI50 ([1]; class symbols)
32 nM,109 nM,–,–,–,"C=CC(=O)Nc1cccc(Nc2nc(Nc3ccc(N4CCN(C(C)=O)CC4)cc3OC)ncc2C(F)(F)F)c1 [CO-1686, reference compound]",2500 nM,A′ (A′ represents a ratio of greater than 10),A′ (A′ represents a ratio of greater than 10),–
–,–,< 500 nM,1000 to 5000 nM,< 500 nM,"C=CC(=O)N1CCCC[C@@H](n2c(NC(=O)c3ccnc(C(F)(F)F)c3)nc3ccc4c(c32)OCCO4)C1 [B1, (R)—N-(1-(1-acryloylazepan-3-yl)-7,8-dihydro-1H-[1,4]dioxino[2′,3′:3,4]benzo[1,2-d]imidazol-2-yl)-2-(trifluoromethyl)isonicotinamide]",–,–,–,> 5000 nM
–,–,< 500 nM,1000 to 5000 nM,< 500 nM,"C=CC(=O)N1CCCC[C@@H](n2c(NC(=O)c3ccnc(OC)c3)nc3ccc4c(c32)OCCO4)C1 [C2, (R)—N-(1-(1-acryloylazepan-3-yl)-7,8-dihydro-1H-[1,4]dioxino[2′,3′:3,4]benzo[1,2-d]imidazol-2-yl)-2-methoxyisonicotinamide]",–,–,–,1000 to 5000 nM
–,–,< 500 nM,1000 to 5000 nM,< 500 nM,"C=CC(=O)N1CCCC[C@@H](n2c(NC(=O)c3ccnc(C)c3)nc3ccc4c(c32)OCCO4)C1 [C1, (R)—N-(1-(1-acryloylazepan-3-yl)-7,8-dihydro-1H-[1,4]dioxino[2′,3′:3,4]benzo[1,2-d]imidazol-2-yl)-2-methylisonicotinamide]",–,–,–,1000 to 5000 nM
